# Values of other authors as cited in patent publication US20040054001A1, “Fumaric acid derivatives as nf-kappab inhibitors” (priority 2001, published 2004).
# Tested on: Ehrlich ascites tumour
# Conditions: mice; cited from earlier work
smiles,measurement,value
O=C(O)/C=C/C(=O)O [fumaric acid],growth of the Ehrlich ascites tumour,inhibits
